Experimental data taken from PubChem BioAssay (NCI).
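48-hour exposure; five concentrations; linearly interpolated endpoints. TGI: concentration producing complete growth inhibition.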

Columns and labels:
Experiment in all cases: NCI anticancer screen, dose series, 48 h
SNB-19 CNS = test system: SNB-19 CNS
DU-145 prostate = test system: DU-145 prostate
RPMI-8226 leukemia = test system: RPMI-8226 leukemia
M14 melanoma = test system: M14 melanoma
NCI-H23 lung = test system: NCI-H23 lung
MDA-MB-435 = test system: MDA-MB-435
TK-10 renal = test system: TK-10 renal
CAKI-1 renal = test system: CAKI-1 renal
A549 NSCLC = test system: A549 NSCLC
CCRF-CEM leukemia = test system: CCRF-CEM leukemia
HCC-2998 colon = test system: HCC-2998 colon
U251 CNS = test system: U251 CNS
T-47D breast = test system: T-47D breast
SN12C renal = test system: SN12C renal
UACC-257 melanoma = test system: UACC-257 melanoma

Row | Compound | TGI (SNB-19 CNS) [µM] | TGI (DU-145 prostate) [µM] | TGI (RPMI-8226 leukemia) [µM] | TGI (M14 melanoma) [µM] | TGI (NCI-H23 lung) [µM] | TGI (MDA-MB-435) [µM] | TGI (TK-10 renal) [µM] | TGI (CAKI-1 renal) [µM] | TGI (A549 NSCLC) [µM] | TGI (CCRF-CEM leukemia) [µM] | TGI (HCC-2998 colon) [µM] | TGI (U251 CNS) [µM] | TGI (T-47D breast) [µM] | TGI (SN12C renal) [µM] | TGI (UACC-257 melanoma) [µM]
1 | CC(C)(C)OC(=O)NC1CC=CCC1NC(=O)OC(C)(C)C (centres undefined) | > 100 | > 100 | > 100 | > 100 | > 100 | > 100 | > 100 | > 100 | > 100 | > 100 | > 100 | > 100 | > 100 | > 100 | > 100
2 | N#Cc1nc(C2CC2)oc1N | > 100 | > 100 | > 100 | > 100 | > 100 | > 100 | > 100 | > 100 | > 100 | > 100 | > 100 | > 100 | > 100 | > 100 | > 100
3 | Nc1ccc(-c2ncc3cc(-c4cccc(-c5cc6cnc(-c7ccc(N)cc7)nc6c6ccccc56)c4)c4ccccc4c3n2)cc1 | > 100 | > 100 | > 100 | > 100 | > 100 | > 100 | > 100 | > 100 | > 100 | > 100 | > 100 | > 100 | > 100 | > 100 | > 100
4 | CCSc1c(C)c2c(n(Cc3ccc(OC)cc3)c1=O)Cc1ccccc1C2 | > 100 | > 100 | – | 27.3 | > 100 | > 100 | 73.3 | > 100 | > 100 | > 100 | 41.6 | 82.4 | > 100 | 46.5 | 44.3
5 | c1cc(-c2csc(-c3ccsc3)c2)cs1 | > 100 | > 100 | > 100 | > 100 | > 100 | > 100 | > 100 | > 100 | > 100 | > 100 | > 100 | > 100 | > 100 | > 100 | > 100
6 | CC1CC(=O)Nc2cc(Cl)ccc2N1C(=O)C1CC1 (centres undefined) | > 100 | > 100 | > 100 | > 100 | > 100 | > 100 | > 100 | > 100 | > 100 | > 100 | > 100 | > 100 | > 100 | > 100 | > 100
7 | OC(CC(CC(O)(C(F)(F)Cl)C(F)(F)Cl)=NNc1ccccc1)(C(F)(F)Cl)C(F)(F)Cl | > 10 | 9.08 | > 10 | > 10 | 7.31 | > 10 | 9.04 | 6.43 | > 10 | > 10 | > 10 | > 10 | 9.42 | > 10 | 5.24
